Counter-ions that a name gives are not always drawn.
What was measured:
[1] = test system: MTT (mouse pheochromocytoma); test: IC50 of cell viability (ATP content); AC50 where efficacy is positive; conditions: (24 or 48 h)
[2] = test system: MTT (mouse pheochromocytoma); test: efficacy (maximal response) relative to doxorubicin = -100% and DMSO = 0%; higher = less inhibition of viability; conditions: (24 or 48 h)

| SMILES | IC50 of cell viability [1] [µM] | efficacy [2] [%] |
| --- | --- | --- |
| COc1cc(-c2ccc(-[n+]3nc(-c4ccccc4)nn3-c3ccc([N+](=O)[O-])cc3)c(OC)c2)ccc1-[n+]1nc(-c2ccccc2)nn1-c1ccc([N+](=O)[O-])cc1 [NITROBLUE TETRAZOLIUM CHLORIDE] | 21.1 | -107 |
| CC(C)NC(=N)NC(=N)Nc1ccc(Cl)cc1 [Proguanil hydrochloride] | 4.53 | -59 |
| CCOc1ccc(Cc2nccc3cc(OCC)c(OCC)cc23)cc1OCC [Ethaverine hydrochloride] | 3.6 | -60 |
| O=C(Nc1ccc(Cl)cc1)Nc1ccc(Cl)c(Cl)c1 [Triclocarban] | 26.6 | -121 |
| Cl.CCC1=C2CN3C(=O)\C4=C(/C=C3/C2=NC5=CC=C(OC(=O)N6CCC(CC6)N7CCCCC7)C=C15)[C@@](O)(CC)C(=O)OC4 [IRINOTECAN HYDROCHLORIDE] | 11.9 | -66.8 |
| CCOC(=O)c1c(N)sc2c1CCN(Cc1ccccc1)C2 [TINORIDINE HYDROCHLORIDE] | 11.9 | -45.5 |
| [O-][n+]1ccccc1SSc1cccc[n+]1[O-] [Dipyrithione] | 1.5 | -81 |
| CC(C)C[C@@H](NC(=O)[C@@H](Cc1ccccc1)NC(=O)c1cnccn1)B(O)O [BORTEZOMIB] | 0.596 | -74.6 |
| O=c1n(CC2CO2)c(=O)n(CC2CO2)c(=O)n1CC1CO1 (stereo not drawn) [TEROXIRONUM] | 4.22 | -43.7 |
| Nc1ccc2cc3ccc(N)cc3nc2c1 [PROFLAVINE HEMISULFATE] | 8.41 | -91.5 |
| Oc1cccc[c]1[Hg][Cl] [MERCUFENOL CHLORIDE] | 2.99 | -83.5 |
| CN(C)C1=CC=C(C=C1)C(=C2\C=C/C(/C=C2)=[N+](/C)C)\C3=C(O)C(=CC4=CC(=CC=C34)S([O-])(=O)=O)S([O-])(=O)=O [LISSAMINE GREEN B] | 6.68 | -54.2 |
| CC[C@@]1(O)C(=O)OC/C2=C1/C=C/3N(CC4=CC5=C(C=CC=C5[N+]([O-])=O)N=C34)C2=O [RUBITECAN] | 0.422 | -54.5 |
| COCC(=O)O[C@]1(CCN(C)CCCc2nc3ccccc3[nH]2)CCc2cc(F)ccc2[C@@H]1C(C)C.Cl.Cl [Mibefradil dihydrochloride] | 11.9 | -97.9 |

From the supplement of paper PMC3974653
